One experiment has as its target PDK1 Direct (Homo sapiens, UniProt O15530). In words: Kinome selectivity screen PDK1 Direct. It is filed as biochemical. The note with it: 1 μM compound. The method, then: (§1) Kinome Selectivity Screen:
(§2) Kinase selectivity was assessed using the Life Technologies SelectScreen Kinase Profiling Service in a custom panel of 76 kinases selected to provide broad representative coverage of all kinase families. Kinase activity assays employed either the Z′-LYTE or Adapta assay technologies with ATP concentrations at or near the KM, ATP for each kinase and a test compound concentration of 1 μM.

The target in the next experiment is CHEK1 (CHK1) (Homo sapiens, UniProt O14757). In words: Kinome selectivity screen CHEK1. Type of experiment: biochemical. As to conditions: 1 μM compound. On the procedure:
as §1, §2

In another experiment the target is SYK (Homo sapiens, UniProt P43405). In words: Kinome selectivity screen SYK. It is filed as biochemical. The note with it: 1 μM compound. On the procedure: as §1, §2
A further experiment deals with MAPK8 (JNK1) (Homo sapiens, UniProt P45983). Put plainly: Kinome selectivity screen MAPK8. It is filed as biochemical. As to conditions: 1 μM compound. On the procedure: as §1, §2
Sequence of MAPK8 (JNK1) (P45983 whole entry): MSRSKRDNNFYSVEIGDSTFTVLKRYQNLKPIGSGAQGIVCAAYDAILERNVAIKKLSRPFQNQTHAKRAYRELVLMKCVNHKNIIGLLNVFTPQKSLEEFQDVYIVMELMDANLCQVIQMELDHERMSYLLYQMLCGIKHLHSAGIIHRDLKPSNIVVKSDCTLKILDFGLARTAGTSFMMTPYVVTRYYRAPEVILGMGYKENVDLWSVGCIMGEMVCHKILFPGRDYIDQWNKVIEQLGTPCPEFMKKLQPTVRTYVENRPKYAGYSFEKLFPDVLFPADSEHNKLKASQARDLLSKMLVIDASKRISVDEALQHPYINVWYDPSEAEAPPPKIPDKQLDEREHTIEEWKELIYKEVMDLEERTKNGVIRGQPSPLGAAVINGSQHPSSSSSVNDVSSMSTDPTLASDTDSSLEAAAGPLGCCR
Another experiment concerns the target RET (Homo sapiens, UniProt P07949). Put plainly: Kinome selectivity screen RET. Type of experiment: biochemical. As to conditions: 1 μM compound. On the procedure:
as §1, §2

The next experiment addresses EPHA2 (Homo sapiens, UniProt P29317). Put plainly: Kinome selectivity screen EPHA2. Type of experiment: biochemical. As to conditions: 1 μM compound. The method, then: as §1, §2
The target in a further experiment is PRKG2 (PKG2) (Homo sapiens, UniProt Q13237). Put plainly: Kinome selectivity screen PRKG2. It is filed as biochemical. The note with it: 1 μM compound. On the procedure:
as §1, §2

The target of another experiment is GRK4 (Homo sapiens, UniProt P32298). Put plainly: Kinome selectivity screen GRK4. Type of experiment: biochemical. As to conditions: 1 μM compound. The method, then:
as §1, §2

A further experiment addresses PRKCE (PKC epsilon) (Homo sapiens, UniProt Q02156). Put plainly: Kinome selectivity screen PRKCE. It is filed as biochemical. The note with it: 1 μM compound. The method, then:
as §1, §2

A further experiment concerns the target ERBB2 (HER2) (Homo sapiens, UniProt P04626). In words: Kinome selectivity screen ERBB2. As to conditions: 1 μM compound. It is filed as biochemical. On the procedure:
as §1, §2

For another experiment, the target named is FGFR1 (Homo sapiens, UniProt P11362). In words: Kinome selectivity screen FGFR1. As to conditions: 1 μM compound. Type of experiment: biochemical. The method, then: as §1, §2
A further experiment has as its target CLK1 (Homo sapiens, UniProt P49759). Put plainly: Kinome selectivity screen CLK1. Type of experiment: biochemical. The note with it: 1 μM compound. On the procedure: as §1, §2
For the next experiment, the target named is TEK (Tie2) (Homo sapiens, UniProt Q02763). Put plainly: Kinome selectivity screen TEK. It is filed as biochemical. As to conditions: 1 μM compound. The method, then:
as §1, §2

The target in the next experiment is KDR (VEGFR2) (Homo sapiens, UniProt P35968). In words: Kinome selectivity screen KDR. Type of experiment: biochemical. As to conditions: 1 μM compound. On the procedure:
as §1, §2

A further experiment addresses CSNK2A1 (CK2 alpha 1) (Homo sapiens, UniProt P68400). Put plainly: Kinome selectivity screen CSNK2A1. The note with it: 1 μM compound. It is filed as biochemical. On the procedure: as §1, §2
Another experiment concerns the target NEK7 (Homo sapiens, UniProt Q8TDX7). Put plainly: Kinome selectivity screen NEK7. Type of experiment: biochemical. As to conditions: 1 μM compound. On the procedure: as §1, §2
In a further experiment the target is DAPK3 (ZIPK) (Homo sapiens, UniProt O43293). In words: Kinome selectivity screen DAPK3. Type of experiment: biochemical. The note with it: 1 μM compound. On the procedure:
as §1, §2

In the next experiment the target is FLT3 (Homo sapiens, UniProt P36888). In words: Kinome selectivity screen FLT3. Type of experiment: biochemical. The note with it: 1 μM compound. The method, then:
as §1, §2

A further experiment deals with IRAK4 (Homo sapiens, UniProt Q9NWZ3). In words: Kinome selectivity screen IRAK4. It is filed as biochemical. The note with it: 1 μM compound. On the procedure:
as §1, §2

The test system of another experiment is p-cJun in HEK293 cells. Put plainly: p-cJun inhibition in HEK293 cells. Type of experiment: cell-based. As to conditions: Homo sapiens. The method, then: HEK293, Beas2B and 3T3 cells were plated 24 hours before procedure on 384 well clear bottom black flat plates (Corning) pre-coated with Fibronectin (Sigma) diluted in PBS to a concentration of 5 μg/ml 45 minutes prior to cells introduction. Cells were plated using Multidrop™ Combi reagent dispenser (Thermo Fisher Scientific). Compound, reagents and antibody dispensing as well as washes were performed with a CyBio liquid handler (Analytik). Cells were pre-incubated with a small molecule or up to 1% DMSO for 2 h before fixation. HEK293, 3T3 or Beas2B cells were treated with 0.6M/0.2M/0.2M D-Sorbitol/PBS (Sigma) for 20/40/40 min. respectively, before fixation. Media was removed and wells were immediately fixed with 150 μl per well of 3.7% formaldehyde/PBS fixing solution for 20 min. Formaldehyde was then aspired and cells were permeabilized with 150 μl of 0.5% Triton x-100/PBS solution for 10 min. After aspiration cells were washed with ice-cold methanol and stored at −20° C., for 10 min. Methanol was aspired and cells were blocked with 150 μl blocking buffer (LICOR) for 90 min. Primary antibody Phospho-SAPK/JNK T183/Y185 (CST; 9251S) was diluted 1:1000 in blocking buffer and was applied 50 μl per well, except control wells to which only blocking buffer was applied, O.N. (16 h) at 4° C. with mild shaking. […] Wells signals were analyzed with Odyssey software. […]
To rapidly assess the cellular activity (EC50) with full dose response curves of the MKK7 covalent inhibitors, according to some embodiments of the present invention, an in-cell western assay was adapted to a 384 well plate format over traditional western blot, and monitored phospho-JNK (pJNK) levels in response to osmotic shock. […] The compound's activity was assessed by pre-treating cells with either compound or DMSO for 2 hours, followed by Sorbitol stimulation. The response of pJNK, and its substrates, pc-Jun and pATF2, was measured, as well as pP38, which is a substrate of MKK4 but not MKK7, and pERK in HEK293 cells, and the results are presented in Table 5 below.

The target of the next experiment is CSNK1G2 (CK1 gamma 2) (Homo sapiens, UniProt P78368). Put plainly: Kinome selectivity screen CSNK1G2. Type of experiment: biochemical. As to conditions: 1 μM compound. On the procedure:
as §1, §2

In the next experiment the target is PRKCB1 (PKC beta I) (Homo sapiens, UniProt P05771). Put plainly: Kinome selectivity screen PRKCB1. It is filed as biochemical. The note with it: 1 μM compound. On the procedure: as §1, §2
Sequence of PRKCB1 (PKC beta I) (P05771 whole entry): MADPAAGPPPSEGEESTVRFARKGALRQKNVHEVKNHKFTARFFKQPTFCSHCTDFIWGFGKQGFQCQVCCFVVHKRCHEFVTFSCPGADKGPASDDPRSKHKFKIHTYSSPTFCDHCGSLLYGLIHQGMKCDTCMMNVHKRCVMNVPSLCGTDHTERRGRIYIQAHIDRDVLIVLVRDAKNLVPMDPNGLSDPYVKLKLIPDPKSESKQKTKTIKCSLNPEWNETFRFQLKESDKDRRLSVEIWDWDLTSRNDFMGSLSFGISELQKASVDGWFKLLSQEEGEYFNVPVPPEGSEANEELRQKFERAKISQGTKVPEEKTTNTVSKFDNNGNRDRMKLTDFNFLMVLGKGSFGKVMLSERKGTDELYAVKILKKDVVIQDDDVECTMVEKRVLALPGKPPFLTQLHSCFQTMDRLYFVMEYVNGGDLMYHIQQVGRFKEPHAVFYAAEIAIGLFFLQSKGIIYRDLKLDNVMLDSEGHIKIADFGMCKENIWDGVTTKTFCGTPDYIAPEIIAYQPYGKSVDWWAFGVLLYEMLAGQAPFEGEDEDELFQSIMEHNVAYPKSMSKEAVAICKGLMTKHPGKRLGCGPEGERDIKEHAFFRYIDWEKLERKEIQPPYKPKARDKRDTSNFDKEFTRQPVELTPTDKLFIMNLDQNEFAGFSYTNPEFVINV

Sequence of CHEK1 (CHK1) (O14757 whole entry): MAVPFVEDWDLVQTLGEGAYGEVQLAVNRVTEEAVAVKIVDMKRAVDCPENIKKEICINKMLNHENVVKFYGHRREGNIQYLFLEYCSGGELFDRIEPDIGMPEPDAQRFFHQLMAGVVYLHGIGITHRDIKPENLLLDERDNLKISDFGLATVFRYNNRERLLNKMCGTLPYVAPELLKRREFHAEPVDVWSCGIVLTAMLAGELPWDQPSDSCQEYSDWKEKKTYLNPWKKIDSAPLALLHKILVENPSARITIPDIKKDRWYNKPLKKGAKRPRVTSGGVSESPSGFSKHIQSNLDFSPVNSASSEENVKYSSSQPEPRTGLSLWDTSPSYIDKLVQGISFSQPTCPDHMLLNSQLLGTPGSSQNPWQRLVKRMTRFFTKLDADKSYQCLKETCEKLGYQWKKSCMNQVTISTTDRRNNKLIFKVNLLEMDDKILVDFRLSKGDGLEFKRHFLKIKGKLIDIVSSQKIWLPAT
Sequence of CLK1 (P49759 whole entry): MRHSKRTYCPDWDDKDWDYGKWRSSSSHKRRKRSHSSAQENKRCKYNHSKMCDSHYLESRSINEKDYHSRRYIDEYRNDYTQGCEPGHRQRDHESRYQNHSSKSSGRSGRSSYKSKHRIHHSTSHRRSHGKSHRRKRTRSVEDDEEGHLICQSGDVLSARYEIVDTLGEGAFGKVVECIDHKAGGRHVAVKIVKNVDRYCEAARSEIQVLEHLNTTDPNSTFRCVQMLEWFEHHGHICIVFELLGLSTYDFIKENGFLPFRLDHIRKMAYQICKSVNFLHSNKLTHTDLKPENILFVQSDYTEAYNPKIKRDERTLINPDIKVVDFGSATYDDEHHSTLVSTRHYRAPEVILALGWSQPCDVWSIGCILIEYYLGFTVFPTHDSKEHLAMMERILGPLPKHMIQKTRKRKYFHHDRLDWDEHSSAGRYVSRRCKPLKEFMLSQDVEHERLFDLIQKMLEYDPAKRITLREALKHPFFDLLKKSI
Sequence of IRAK4 (Q9NWZ3 whole entry): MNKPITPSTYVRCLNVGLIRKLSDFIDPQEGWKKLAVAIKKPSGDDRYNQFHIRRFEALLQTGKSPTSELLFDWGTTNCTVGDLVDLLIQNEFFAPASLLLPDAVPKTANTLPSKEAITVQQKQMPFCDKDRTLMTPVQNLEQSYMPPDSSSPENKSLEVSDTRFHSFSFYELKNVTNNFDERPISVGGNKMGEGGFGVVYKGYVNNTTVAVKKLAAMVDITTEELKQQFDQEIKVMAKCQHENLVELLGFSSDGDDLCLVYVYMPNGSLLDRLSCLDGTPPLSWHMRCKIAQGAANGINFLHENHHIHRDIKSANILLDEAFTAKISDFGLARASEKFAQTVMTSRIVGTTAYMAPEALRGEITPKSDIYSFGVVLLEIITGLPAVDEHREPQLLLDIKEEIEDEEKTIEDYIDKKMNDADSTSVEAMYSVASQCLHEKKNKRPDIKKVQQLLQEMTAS
Sequence of GRK4 (P32298 whole entry): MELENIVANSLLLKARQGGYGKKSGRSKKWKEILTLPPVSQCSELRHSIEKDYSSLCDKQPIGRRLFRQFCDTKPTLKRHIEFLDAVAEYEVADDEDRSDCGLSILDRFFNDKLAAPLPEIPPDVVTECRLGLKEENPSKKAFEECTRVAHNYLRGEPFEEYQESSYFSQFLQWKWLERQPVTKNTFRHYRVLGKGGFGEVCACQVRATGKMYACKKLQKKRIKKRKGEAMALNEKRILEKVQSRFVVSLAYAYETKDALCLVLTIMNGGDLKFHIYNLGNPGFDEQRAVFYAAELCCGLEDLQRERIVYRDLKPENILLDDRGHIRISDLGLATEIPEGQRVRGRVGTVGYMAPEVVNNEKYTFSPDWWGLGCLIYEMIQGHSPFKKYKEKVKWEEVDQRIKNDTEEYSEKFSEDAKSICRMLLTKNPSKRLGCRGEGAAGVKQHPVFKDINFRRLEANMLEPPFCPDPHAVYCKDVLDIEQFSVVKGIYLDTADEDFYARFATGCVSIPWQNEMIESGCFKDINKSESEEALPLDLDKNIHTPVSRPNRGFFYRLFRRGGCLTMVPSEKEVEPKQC
Sequence of PRKCE (PKC epsilon) (Q02156 whole entry): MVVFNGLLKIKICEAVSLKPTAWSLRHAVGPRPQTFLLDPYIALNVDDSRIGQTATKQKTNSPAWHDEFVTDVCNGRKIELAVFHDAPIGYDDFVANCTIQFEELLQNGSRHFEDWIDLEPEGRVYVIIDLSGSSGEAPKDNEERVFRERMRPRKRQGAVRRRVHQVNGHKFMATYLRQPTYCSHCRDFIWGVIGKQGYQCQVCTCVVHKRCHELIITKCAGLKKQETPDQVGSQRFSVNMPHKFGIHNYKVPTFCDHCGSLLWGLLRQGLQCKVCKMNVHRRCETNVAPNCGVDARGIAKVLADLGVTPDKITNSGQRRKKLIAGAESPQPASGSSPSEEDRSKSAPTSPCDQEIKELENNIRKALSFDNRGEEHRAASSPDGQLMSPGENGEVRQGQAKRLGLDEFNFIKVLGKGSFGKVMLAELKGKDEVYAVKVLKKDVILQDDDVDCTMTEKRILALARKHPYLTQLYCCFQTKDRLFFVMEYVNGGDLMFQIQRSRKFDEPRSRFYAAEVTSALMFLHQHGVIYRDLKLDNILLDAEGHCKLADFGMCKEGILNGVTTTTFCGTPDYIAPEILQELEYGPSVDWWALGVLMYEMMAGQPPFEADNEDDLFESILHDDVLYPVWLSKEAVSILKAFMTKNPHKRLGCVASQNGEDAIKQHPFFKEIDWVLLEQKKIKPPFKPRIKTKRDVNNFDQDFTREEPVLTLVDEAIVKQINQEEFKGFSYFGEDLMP
Sequence of PRKG2 (PKG2) (Q13237 whole entry): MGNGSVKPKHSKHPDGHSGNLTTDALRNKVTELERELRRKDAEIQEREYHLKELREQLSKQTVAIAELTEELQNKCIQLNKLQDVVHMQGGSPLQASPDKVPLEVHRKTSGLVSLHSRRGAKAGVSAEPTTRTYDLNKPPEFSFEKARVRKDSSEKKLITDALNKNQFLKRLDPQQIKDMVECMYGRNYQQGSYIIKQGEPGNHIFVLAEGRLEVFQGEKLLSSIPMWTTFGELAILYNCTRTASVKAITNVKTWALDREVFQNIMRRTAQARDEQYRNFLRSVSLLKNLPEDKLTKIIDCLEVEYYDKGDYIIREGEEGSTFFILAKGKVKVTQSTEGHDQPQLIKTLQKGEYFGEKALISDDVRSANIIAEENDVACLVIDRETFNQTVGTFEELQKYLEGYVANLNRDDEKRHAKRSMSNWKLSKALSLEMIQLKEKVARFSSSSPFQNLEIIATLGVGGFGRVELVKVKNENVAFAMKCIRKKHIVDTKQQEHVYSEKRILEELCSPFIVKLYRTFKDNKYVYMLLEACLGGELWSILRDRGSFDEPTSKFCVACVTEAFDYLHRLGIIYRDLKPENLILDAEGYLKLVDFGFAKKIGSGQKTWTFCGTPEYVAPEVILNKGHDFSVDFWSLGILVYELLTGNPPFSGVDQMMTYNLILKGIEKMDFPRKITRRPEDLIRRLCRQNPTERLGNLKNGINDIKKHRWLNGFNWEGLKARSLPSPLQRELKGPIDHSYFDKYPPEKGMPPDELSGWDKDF
Sequence of CSNK2A1 (CK2 alpha 1) (P68400 whole entry): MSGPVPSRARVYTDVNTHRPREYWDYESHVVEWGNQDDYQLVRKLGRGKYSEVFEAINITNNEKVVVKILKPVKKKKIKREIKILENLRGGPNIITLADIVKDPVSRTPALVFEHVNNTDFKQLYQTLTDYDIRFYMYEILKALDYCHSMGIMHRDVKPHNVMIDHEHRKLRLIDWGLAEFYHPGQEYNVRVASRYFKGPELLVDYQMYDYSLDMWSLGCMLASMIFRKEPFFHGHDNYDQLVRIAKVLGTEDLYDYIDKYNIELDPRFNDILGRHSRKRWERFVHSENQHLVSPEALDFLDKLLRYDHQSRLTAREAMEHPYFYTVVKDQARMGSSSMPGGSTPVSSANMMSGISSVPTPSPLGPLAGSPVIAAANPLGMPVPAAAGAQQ

In the case of `C=CC(=O)Nc1cccc(-c2n[nH]c3ccccc23)c1` [GO32], the inhibition at 1 µM is 22% against PDK1 Direct; 10% at CHEK1 (CHK1); 19% against SYK; 15% against MAPK8 (JNK1); 6% against RET; -16% at EPHA2. Further, the inhibition at 1 µM on PRKG2 (PKG2) was -2%; against GRK4, -5%; on PRKCE (PKC epsilon) it was 20%; against ERBB2 (HER2), 1%; against FGFR1, 2%; on CLK1, 14%. In addition, the inhibition at 1 µM against TEK (Tie2) was 25%; against KDR (VEGFR2) it was 4%; at CSNK2A1 (CK2 alpha 1), 0%; against NEK7, 8%; at DAPK3 (ZIPK), -3%; on FLT3, 55%. Moreover, the results for the inhibition at 1 µM at IRAK4, against CSNK1G2 (CK1 gamma 2) and against PRKCB1 (PKC beta I) were 15%, 3% and 1%, respectively. In the experiment with p-cJun in HEK293 cells, this compound displayed an EC50 of 2260 nM.

Regarding `C=CC(=O)Nc1cccc(-c2n[nH]c3cc(C)ccc23)c1` [GO80], the inhibition at 1 µM on PDK1 Direct was 26%; against CHEK1 (CHK1), 2%; against SYK it was 17%; against MAPK8 (JNK1) it was 16%; against RET, 5%; against EPHA2, -13%. In addition, the inhibition at 1 µM against PRKG2 (PKG2) is 0%; on GRK4 it was -3%; against PRKCE (PKC epsilon) it was 21%; on ERBB2 (HER2), -1%; against FGFR1, -2%; on CLK1 it was 2%. Also, the inhibition at 1 µM at TEK (Tie2) was 1%; against KDR (VEGFR2) it was 6%; against CSNK2A1 (CK2 alpha 1), -2%; against NEK7, 7%; against DAPK3 (ZIPK) it was -2%; on FLT3, 79%. Further, the inhibition at 1 µM was 12% on IRAK4, -13% against CSNK1G2 (CK1 gamma 2) and 5% against PRKCB1 (PKC beta I). In the experiment on p-cJun in HEK293 cells, this compound gave an EC50 of 1670 nM.

Broadly, the inhibition is the relative decrease from the control value, in per cent. Broadly, the EC50 is the concentration giving half of the maximal effect. High values mean weaker potency, low ones greater potency.

For the origin of these results see patent US20210238173A1, “MITOGEN-ACTIVATED PROTEIN KINASE KINASE 7 INHIBITORS” (Yeda Research and Development Co. Ltd., priority 2018, published 2021).
